Measured values from PubChem BioAssay AID248 (DTP/NCI, 2004).
Values joined by “and” are separate entries in the source; they are usually repeats but may differ in a detail not shown here. Identical values can stand only once. Inconclusive results and toxic doses are left out. No stated cut-off is given here; in the data, active means T/C of 150% or more; inactive means T/C below 125%.

Tested on: L1210 leukemia ip in BDF1 mice, survival T/C
Test: NCI In Vivo Anticancer Drug Screen. Data for tumor model L1210 Leukemia (intraperitoneal) in B6D2F1 (BDF1) mice
Settings: endpoint: mean survival time, higher = longer survival
In short: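 Each compound was tested against a transplantable tumor grown in mice. The endpoint was survival, with treated animals benchmarked against vehicle controls as a simple ratio.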

[1] = dose: 25.0 mg/kg/injection, schedule: Q01DX009 (ip), vehicle: saline with Tween-80
[2] = dose: 50.0 mg/kg/injection, schedule: Q01DX009 (ip), vehicle: saline with Tween-80
[3] = dose: 100.0 mg/kg/injection, schedule: Q01DX009 (ip), vehicle: saline with Tween-80
[4] = dose: 100.0 mg/kg/injection, schedule: Q04DX003 (ip), vehicle: saline with Tween-80
[5] = dose: 100.0 mg/kg/injection, schedule: Q01DX009 (ip), vehicle: Klucel (hydroxypropylcellulose) (HPC)
[6] = dose: 100.0 mg/kg/injection, schedule: Q04DX002 (ip), vehicle: Klucel (hydroxypropylcellulose) (HPC)
[7] = dose: 200.0 mg/kg/injection, schedule: Q01DX009 (ip), vehicle: Klucel (hydroxypropylcellulose) (HPC)
[8] = dose: 200.0 mg/kg/injection, schedule: Q04DX002 (ip), vehicle: Klucel (hydroxypropylcellulose) (HPC)
[9] = dose: 400.0 mg/kg/injection, schedule: Q04DX002 (ip), vehicle: Klucel (hydroxypropylcellulose) (HPC)
[10] = dose: 200.0 mg/kg/injection, schedule: Q04DX003 (ip), vehicle: saline with Tween-80
[11] = dose: 400.0 mg/kg/injection, schedule: Q04DX003 (ip), vehicle: saline with Tween-80
[12] = dose: 200.0 mg/kg/injection, schedule: Q01DX009 (ip), vehicle: saline with Tween-80
[13] = dose: 400.0 mg/kg/injection, schedule: Q01DX009 (ip), vehicle: saline with Tween-80
[14] = dose: 100.0 mg/kg/injection, schedule: Q04DX003 (ip), vehicle: Klucel (hydroxypropylcellulose) (HPC)
[15] = dose: 100.0 mg/kg/injection, schedule: Q04DX003 (ip), vehicle: saline
[16] = dose: 200.0 mg/kg/injection, schedule: Q04DX003 (ip), vehicle: saline
[17] = dose: 400.0 mg/kg/injection, schedule: Q04DX003 (ip), vehicle: saline

Measured: T/C

CCCCOC(=O)C#CC(=O)OCCCC
inactive: dose: 6.25 mg/kg/injection, schedule: Q01DX009 (ip), vehicle: carboxymethylcellulose (CMC) 94 % of control | dose: 6.25 mg/kg/injection, schedule: Q04DX003 (ip), vehicle: carboxymethylcellulose (CMC) 100 % of control | dose: 12.5 mg/kg/injection, schedule: Q01DX009 (ip), vehicle: carboxymethylcellulose (CMC) 96 % of control | dose: 12.5 mg/kg/injection, schedule: Q04DX002 (ip), vehicle: carboxymethylcellulose (CMC) 95 % of control and 97 % of control | dose: 12.5 mg/kg/injection, schedule: Q04DX003 (ip), vehicle: carboxymethylcellulose (CMC) 97 % of control | dose: 25.0 mg/kg/injection, schedule: Q04DX002 (ip), vehicle: carboxymethylcellulose (CMC) 92 % of control and 95 % of control | dose: 25.0 mg/kg/injection, schedule: Q04DX003 (ip), vehicle: carboxymethylcellulose (CMC) 95 % of control | dose: 50.0 mg/kg/injection, schedule: Q04DX002 (ip), vehicle: carboxymethylcellulose (CMC) 90 % of control

CC(=O)Oc1cc(C)c(OC(C)=O)c(C)c1C
inactive: [1] 108 % of control | dose: 25.0 mg/kg/injection, schedule: Q04DX003 (ip), vehicle: saline with Tween-80 92 % of control | [2] 103 % of control | dose: 50.0 mg/kg/injection, schedule: Q04DX003 (ip), vehicle: saline with Tween-80 94 % of control | [3] 96 % of control | [4] 100 % of control and 103 % of control

O=C(c1ccccc1)C(Nc1nc2nc(-c3ccccc3)c(-c3ccccc3)n2[nH]1)c1ccccc1 (centres undefined)
inactive: dose: 100.0 mg/kg/injection, schedule: Q01DX005 (ip), vehicle: Klucel (hydroxypropylcellulose) (HPC) 98 % of control | [5] 93 % of control | [6] 101 % of control | dose: 200.0 mg/kg/injection, schedule: Q01DX005 (ip), vehicle: Klucel (hydroxypropylcellulose) (HPC) 98 % of control | [7] 93 % of control | [8] 93 % of control | dose: 400.0 mg/kg/injection, schedule: Q01DX005 (ip), vehicle: Klucel (hydroxypropylcellulose) (HPC) 98 % of control | dose: 400.0 mg/kg/injection, schedule: Q01DX009 (ip), vehicle: Klucel (hydroxypropylcellulose) (HPC) 93 % of control | [9] 96 % of control

c1ccc(N2CCN(c3ccccc3)C2c2ccc3c(c2)CCC3)cc1
inactive: [4] 92 % of control | [10] 90 % of control | [11] 104 % of control

CCC1C(=O)N(C)c2ccccc21 (centres undefined)
inactive: dose: 100.0 mg/kg/injection, schedule: Q01DX001 (ip), vehicle: acetone 100 % of control | dose: 200.0 mg/kg/injection, schedule: Q01DX001 (ip), vehicle: acetone 96 % of control | dose: 400.0 mg/kg/injection, schedule: Q01DX001 (ip), vehicle: acetone 97 % of control

O=c1cc(-c2cccs2)ss1
inactive: [3] 89 % of control | [4] 102 % of control | [12] 105 % of control | [10] 94 % of control | [13] 86 % of control | [11] 104 % of control

NC(N)=NC(N)=Nc1cccc(Cl)c1
inactive: dose: 25.0 mg/kg/injection, schedule: Q01DX009 (ip), vehicle: Klucel (hydroxypropylcellulose) (HPC) 108 % of control and 88 % of control | dose: 50.0 mg/kg/injection, schedule: Q01DX009 (ip), vehicle: Klucel (hydroxypropylcellulose) (HPC) 94 % of control and 97 % of control | dose: 100.0 mg/kg/injection, schedule: Q01DX001 (ip), vehicle: Klucel (hydroxypropylcellulose) (HPC) 93 % of control | [14] 105 % of control | dose: 200.0 mg/kg/injection, schedule: Q01DX001 (ip), vehicle: Klucel (hydroxypropylcellulose) (HPC) 103 % of control

CCCCCCCCCCCCCCCc1ccc(C(=O)C[n+]2ccccc2)cc1
inactive: dose: 16.5 mg/kg/injection, schedule: Q01DX009 (ip), vehicle: saline with Tween-80 114 % of control | [1] 120 % of control

CC1CCC(C)(C)C1=O (centres undefined)
inactive: dose: 100.0 mg/kg/injection, schedule: Q01DX009 (ip), vehicle: saline 106 % of control | dose: 200.0 mg/kg/injection, schedule: Q01DX009 (ip), vehicle: saline 96 % of control | dose: 400.0 mg/kg/injection, schedule: Q01DX009 (ip), vehicle: saline 98 % of control

CCCNC(=O)c1ccc(NC(=O)Nc2ccc(C3=NCCN3)cc2)cc1NC(=O)Nc1ccc(C2=NCCN2)cc1
inactive: dose: 25.0 mg/kg/injection, schedule: Q01DX Z (ip), vehicle: carboxymethylcellulose (CMC) 113 % of control | dose: 50.0 mg/kg/injection, schedule: Q01DX Z (ip), vehicle: carboxymethylcellulose (CMC) 117 % of control | dose: 100.0 mg/kg/injection, schedule: Q01DX Z (ip), vehicle: carboxymethylcellulose (CMC) 108 % of control and 113 % of control

O=[N+]([O-])c1ccc(N2N=NC(c3ccccc3)C2(c2ccccc2)N2CCOCC2)cc1 (centres undefined)
inactive: dose: 150.0 mg/kg/injection, schedule: Q01DX001 (ip), vehicle: saline 89 % of control

[Cl][Gd]([Cl])[Cl]
inactive: [15] 94 % of control | [16] 115 % of control | [17] 95 % of control

NC(=O)c1c(Cl)cccc1Cl
inactive: [14] 111 % of control | dose: 200.0 mg/kg/injection, schedule: Q04DX003 (ip), vehicle: Klucel (hydroxypropylcellulose) (HPC) 101 % of control | dose: 400.0 mg/kg/injection, schedule: Q04DX003 (ip), vehicle: Klucel (hydroxypropylcellulose) (HPC) 101 % of control

S=c1sc2ccccc2n1CN(c1ccccc1)c1ccc2ccccc2c1
inactive: [3] 88 % of control | [4] 88 % of control | [12] 90 % of control | [10] 88 % of control | [13] 94 % of control | [11] 93 % of control

O=C(O)CCN1C/C(=C\c2ccc(Cl)cc2)C(=O)C1=O
inactive: [15] 101 % of control | [16] 101 % of control | [17] 101 % of control

OCCC1CNCCN1.[Cl][Pd]([Cl])([Cl])[Cl] (centres undefined)
inactive: dose: 100.0 mg/kg/injection, schedule: Q01DX001 (ip), vehicle: DMSO 98 % of control | dose: 200.0 mg/kg/injection, schedule: Q01DX001 (ip), vehicle: DMSO 91 % of control

CCN(Cc1ccccc1)C(=O)NC(C)(C)C
inactive: [5] 98 % of control | [7] 95 % of control

C=CCCC1CC(C(C)C)CC2(C1)OCCO2 (centres undefined)
inactive: [2] 96 % of control | [3] 96 % of control

COc1cc(NC(=O)Nc2ccc(F)c(Cl)c2)c(OC)cc1Cl
inactive: [6] 100 % of control | [8] 93 % of control | [9] 86 % of control

CC(C(=O)c1ccccc1)C(N[N+](C)(C)C)c1ccccc1 (centres undefined)
inactive: dose: 6.25 mg/kg/injection, schedule: Q04DX003 (ip), vehicle: saline 91 % of control | dose: 12.5 mg/kg/injection, schedule: Q04DX003 (ip), vehicle: saline 97 % of control | dose: 25.0 mg/kg/injection, schedule: Q04DX003 (ip), vehicle: saline 97 % of control

CCC(C1=NC(C)(C)CO1)c1ccccc1Br (centres undefined)
inactive: [15] 97 % of control | [16] 98 % of control | [17] 88 % of control
